Reference: BindingDB's records for doi:10.1021/jm00087a004 (Harvard Medical School, 1992)

Legend:
[1] = Binding affinity towards Opioid receptor delta 1
[2] = Binding affinity towards Opioid receptor delta 1; remark: listed apart in the source

Row | Structure (SMILES) | Ki [1] [nM] | Ki [2] [nM]
1 | CN1CCC2(c3cccc(O)c3)CCCC1[C@H]2O (stereo partly drawn) | 420 | 
2 | CN1CCC2(c3cccc(O)c3)CCCC1C2 (stereo not drawn) |  | > 500
3 | CN1CCC2(c3cccc(O)c3)CCCC1[C@@H]2O (stereo partly drawn) | > 500 | 
